Assay results taken from publication PMC8194028, “Engineering and characterization of human β-defensin-3 and its analogues and microcin J25 peptides against Mannheimia haemolytica and bovine neutrophils” (Veterinary Research, 2021).
In brackets after ≈: the same amount, converted by molar mass. Read-outs that look alike come from different tables or passages of the source. Positions of bridges follow the written chain, without caps; N, C: chain ends. Residues, ends and D or L forms follow the SMILES beside them. No end group written: not given here.

Assays:
[1] = test system: M. haemolytica-A1; format: cell-based, Mannheimia haemolytica; settings: for No. of CFU: one of three experiments
Procedure: Wild-type HBD3, its analogues, and MccJ25 were tested against M. haemolytica-A1 using optical density method and colony count assay. Briefly, an aliquot (5 µL) from bacteria suspension stored at −80 °C was put in 5 mL BHI broth at 37 °C for 18 h. An aliquot (10 µL) from this overnight culture was added to fresh BHI broth and incubated at 37 °C for a further 5 h to obtain mid-log phase bacteria. The culture was then centrifuged for 10 min at 800 g at 4 °C. The supernatant was discarded and the bacterial pellet was resuspended in cold, sterile sodium phosphate buffer (SPB) and washed again at 800g for 10 min at 4 °C. The pellet was resuspended in 5 mL SPB. To calculate the number of CFU/mL in the 5 h culture, six successive tenfold dilutions were made. From the last dilution 100 µL was plated in duplicate on petri dishes containing BHI agar and incubated for 24 h. After 24 h the colonies were counted in the two petri dishes and then averaged. Total number of colonies was the average number of colonies multiplied by the dilution factor.
All assays were carried out in sterile 96-well polypropylene flat-bottomed plates using a broth microdilution method. Two-fold serial dilutions of peptide were made in SPB, and 50 µL of each concentration of peptide was added to the wells of the assay plate. […] Positive control wells contained 50 µL of the bacteria with 50 µL of 64 µg/mL ampicillin and negative control wells contained 50 µL of SPB and 50 µL bacterial suspension. Sterility control well contained 100 µL BHI broth to test and ensure that broth was not contaminated.
The plates were sealed with aluminum foil and were incubated at 37 °C for 2 h then 50 µL of the contents of the well were pipetted on BHI agar plates and incubated for 24 h. The bactericidal activity was expressed as the MBC which is the concentration at which 99.9% of the colonies are killed and the Lethal dose 50 (LD50) at which 50% or more bacteria are killed. All experiments were run in triplicates.
Peptides HBD3, its analogues and Mccj25 were assessed for Minimum bactericidal concentration (MBC). […] All the peptides have shown intermediate to potent killing activity towards M. haemolytica (Figures 2, 3). […] However, some published studies have taken final inoculum in the range of 10^4–10^5 cfu/mL [28].

[2] = test system: bovine neutrophils; experiment: Chemotaxis assay, 48-well Boyden chamber; format: cell-based, cattle; settings: peptide 50.0 μg/mL in lower well; 20 min at 37 °C; three independent experiments; ANOVA with Dunnett, P < 0.05
Procedure: (§1) Neutrophils were isolated from cattle using established methods and approved by the University of Saskatchewan’s Committee on Animal Care. For each individual animal, blood was pooled into 50 mL tubes and diluted with an equal volume of PBS then 12.5 mL of the diluted blood was layered over 10 mL of Ficoll Paque PLUS (Sigma-Aldrich, St. Louis, USA) while taking care to preserve the interface between the two liquids. Following centrifugation at 400 g for 30 min at 20 °C with the brake turned off, the lymphocyte layer was discarded along with Ficoll and plasma. The pellet was washed in 20 mL PBS with centrifugation at 500 g with low brake for 10 min. The supernatant was discarded and the pellet was suspended in equal volume of sterile water and gently mixed for 20 s followed by addition of equal volume of 1.8% NaCl to restore tonicity. The mixture was centrifuged at 500 g for 10 min and followed by another washing and centrifugation at 4 °C. The resulting neutrophil pellet was resuspended in PBS. Bovine neutrophils, collected in the above manner had more than 92% purity, and their viability was greater than 95% based on Trypan blue exclusion assay. Therefore, we use the term neutrophils in the manuscript.
We used fMLP ([…]) as the chemoattractant. […] The cells within the filter pores were then counted in five random fields under light microscope at 40×. […]

[3] = test system: bovine neutrophils; experiment: Migration inhibition assay (neutrophil migration towards fMLP); format: cell-based, cattle; settings: neutrophils with 50.0 μg/mL peptide in upper well; fMLP 114 nM in lower well; 20 min at 37 °C; three independent experiments
Procedure: as §1
Since peptides can be immunomodulatory, migration inhibition was carried out to determine if the peptides inhibit neutrophil migration. […]

[4] = cited from earlier work
Description: In this context, antimicrobial peptides (AMPs) have received significant attention as alternatives to antibiotics. […] Recent work by the […] laboratory has shown that treatment with naturally expressed Tracheal Antimicrobial Peptide, a defensin, neither killed M. haemolytica nor prevented the development of lung disease. Coupled with the fact that M. haemolytica, in normal condition, is prevented from e ...

[5] = peptide 0.8 μg/mL, well row A (duplicate 1), final inoculum 5 × 10^5 cfu/mL
[6] = peptide 0.8 μg/mL, well row B (duplicate 2), final inoculum 5 × 10^5 cfu/mL
[7] = peptide 1.6 μg/mL, well row A (duplicate 1), final inoculum 5 × 10^5 cfu/mL
[8] = peptide 1.6 μg/mL, well row B (duplicate 2), final inoculum 5 × 10^5 cfu/mL
[9] = peptide 3.1 μg/mL, well row A (duplicate 1), final inoculum 5 × 10^5 cfu/mL
[10] = peptide 3.1 μg/mL, well row B (duplicate 2), final inoculum 5 × 10^5 cfu/mL
[11] = peptide 12.5 μg/mL, well row A (duplicate 1), final inoculum 5 × 10^5 cfu/mL
[12] = peptide 12.5 μg/mL, well row B (duplicate 2), final inoculum 5 × 10^5 cfu/mL
[13] = peptide 25.0 μg/mL, well row A (duplicate 1), final inoculum 5 × 10^5 cfu/mL
[14] = peptide 25.0 μg/mL, well row B (duplicate 2), final inoculum 5 × 10^5 cfu/mL
[15] = peptide 50.0 μg/mL, well row A (duplicate 1), final inoculum 5 × 10^5 cfu/mL
[16] = peptide 50.0 μg/mL, well row B (duplicate 2), final inoculum 5 × 10^5 cfu/mL
[17] = peptide 100.0 μg/mL, well row A (duplicate 1), final inoculum 5 × 10^5 cfu/mL, 2 h 37 °C, 50 μL plated, 24 h
[18] = peptide 100.0 μg/mL, well row B (duplicate 2), final inoculum 5 × 10^5 cfu/mL

## KEEQIGKVSTRGRKVVRRKK-OH [HBD3 20AA analogue]
[1]; 2 h
  LD50: 3.1 µg/mL
  MBC: 50.0 µg/mL
[1]; MBC assay, classification of ref 28
  Sensitivity of M. haemolytica to the peptide (class by MBC): intermediately sensitive (as intermediately sensitive if MBC levels were 10–100 μg/mL)
[1]; [5]
  No. of CFU: >400 CFU
[1]; [6]
  No. of CFU: >400 CFU
[1]; [7]
  No. of CFU: >400 CFU
[1]; [8]
  No. of CFU: >400 CFU
[1]; [9]
  No. of CFU: 376 CFU
[1]; [10]
  No. of CFU: >400 CFU
[1]; [11]
  No. of CFU: 240 CFU
[1]; [12]
  No. of CFU: 170 CFU
[1]; [13]
  No. of CFU: 128 CFU
[1]; [14]
  No. of CFU: 151 CFU
[1]; [15]
  No. of CFU: 15 CFU
[1]; [16]
  No. of CFU: 4 CFU
[1]; [17]
  No. of CFU: 4 CFU
[1]; [18]
  No. of CFU: 1 CFU
[2]
  Chemotaxis of bovine neutrophils towards peptide (migrated neutrophils vs PBS): chemotactic
[3]
  Effect of peptide on neutrophil migration towards fMLP: none of the peptides inhibited migration

## CC[C@H](C)[C@H](NC(=O)CNC(=O)[C@@H](NC(=O)[C@H](Cc1ccccc1)NC(=O)[C@H](Cc1ccc(O)cc1)NC(=O)[C@@H]1CCC(=O)NCC(=O)NCC(=O)N[C@@H](C)C(=O)NCC(=O)N[C@@H](Cc2c[nH]cn2)C(=O)N[C@@H](C(C)C)C(=O)N2CCC[C@H]2C(=O)N1)C(C)C)C(=O)NCC(=O)N[C@H](C(=O)N1CCC[C@H]1C(=O)N[C@H](C(=O)N[C@@H](CO)C(=O)N[C@@H](Cc1ccccc1)C(=O)N[C@@H](Cc1ccc(O)cc1)C(=O)NCC(=O)O)[C@@H](C)CC)[C@@H](C)O [MccJ25, Microcin J25] (GGAGHVPEYFVGIGTPISFYG-OH; lactam N-8 (inferred); C-terminus assumed)
[1]; concentration at which 99.9% of the CFU in the final inoculum are killed, 2 h at 37 °C in SPB/BHI, then plated on BHI agar 24 h, final inoculum 1 × 10^5 to 1 × 10^6 cfu/mL, triplicates
  MBC: 100 µg/mL (≈ 47.5 µM)
[1]; lethal dose for ≥ 50% of bacteria, 2 h at 37 °C, then plated 24 h, final inoculum 1 × 10^5 to 1 × 10^6 cfu/mL, triplicates
  LD50: 6.3 µg/mL
[1]; [5]
  No. of CFU: >400 CFU
[1]; [6]
  No. of CFU: >400 CFU
[1]; [7]
  No. of CFU: >400 CFU
[1]; [8]
  No. of CFU: >400 CFU
[1]; [9]
  No. of CFU: >400 CFU
[1]; [10]
  No. of CFU: >400 CFU
[1]; peptide 6.3 μg/mL, well row A (duplicate 1), final inoculum 5 × 10^5 cfu/mL
  No. of CFU: 289 CFU
[1]; peptide 6.3 μg/mL, well row B (duplicate 2), final inoculum 5 × 10^5 cfu/mL
  No. of CFU: 261 CFU
[1]; [11]
  No. of CFU: 211 CFU
[1]; [12]
  No. of CFU: 253 CFU
[1]; [13]
  No. of CFU: 314 CFU
[1]; [14]
  No. of CFU: 310 CFU
[1]; [15]
  No. of CFU: 328 CFU
[1]; [16]
  No. of CFU: 230 CFU
[1]; [17]
  No. of CFU: 211 CFU
[1]; [18]
  No. of CFU: 275 CFU

## CC[C@H](C)[C@H](NC(=O)CNC(=O)[C@@H](NC(=O)[C@H](Cc1ccccc1)NC(=O)[C@H](Cc1ccc(O)cc1)NC(=O)[C@@H]1CCC(=O)NCC(=O)NCC(=O)N[C@@H](C)C(=O)NCC(=O)N[C@@H](Cc2cnc[nH]2)C(=O)N[C@@H](C(C)C)C(=O)N2CCC[C@H]2C(=O)N1)C(C)C)C(=O)NCC(=O)N[C@H](C(=O)N1CCC[C@H]1C(=O)N[C@H](C(=O)N[C@@H](CO)C(=O)N[C@@H](Cc1ccccc1)C(=O)N[C@@H](Cc1ccc(O)cc1)C(=O)NCC(=O)O)[C@@H](C)CC)[C@@H](C)O [MccJ25, Microcin J25] (GGAGHVPEYFVGIGTPISFYG-OH; lactam N-8)
[4]
  Stability in the presence of many proteolytic enzymes: stable

## RGRKVVRRKK-OH [HBD3 10AA analogue]
[1]; 2 h
  MBC: 6.3 µg/mL
[1]; 18 h
  LD50: ≥ 3.1 µg/mL
[1]; peptide 3.1 μg/mL, well row A (duplicate 1), final inoculum 10^4 cfu/mL
  No. of CFU: 7 CFU
[1]; peptide 3.1 μg/mL, well row B (duplicate 2), final inoculum 10^4 cfu/mL
  No. of CFU: 2 CFU
[1]; peptide 6.3 μg/mL, well row A (duplicate 1), final inoculum 10^4 cfu/mL
  No. of CFU: 4 CFU
[1]; peptide 6.3 μg/mL, well row B (duplicate 2), final inoculum 10^4 cfu/mL
  No. of CFU: 1 CFU
[1]; peptide 12.5 μg/mL, well row A (duplicate 1), final inoculum 10^4 cfu/mL
  No. of CFU: 4 CFU
[1]; peptide 12.5 μg/mL, well row B (duplicate 2), final inoculum 10^4 cfu/mL
  No. of CFU: 6 CFU
[1]; peptide 25.0 μg/mL, well row A (duplicate 1), final inoculum 10^4 cfu/mL
  No. of CFU: 4 CFU
[1]; peptide 25.0 μg/mL, well row B (duplicate 2), final inoculum 10^4 cfu/mL
  No. of CFU: 3 CFU
[1]; peptide 50.0 μg/mL, well row A (duplicate 1), final inoculum 10^4 cfu/mL
  No. of CFU: 4 CFU
[1]; peptide 50.0 μg/mL, well row B (duplicate 2), final inoculum 10^4 cfu/mL
  No. of CFU: 1 CFU
[1]; peptide 100.0 μg/mL, well row A (duplicate 1), final inoculum 10^4 cfu/mL
  No. of CFU: 0 CFU
[1]; peptide 100.0 μg/mL, well row B (duplicate 2), final inoculum 10^4 cfu/mL
  No. of CFU: 0 CFU
